Assays:
Type in all cases: toxicity, cell-based
HEK-293T = experiment: Incucyte cell viability with HEK293T; conditions: human, 10 µM, compound concentration 10 uM
Fibroblast = experiment: Incucyte cell viability with human fibroblast; conditions: 10 µM, compound concentration 10 uM
U2OS = experiment: Incucyte cell viability with U2OS; conditions: human, 10 µM, compound concentration 10 uM
[1] = 12 h, replicate number 2, timepoint 12 hours
[2] = 18 h, replicate number 2, timepoint 18 hours
[3] = 24 h, replicate number 2, timepoint 24 hours
[4] = 0 h, replicate number 2, timepoint 0 hours
[5] = 6 h, replicate number 1, timepoint 6 hours
[6] = 12 h, replicate number 1, timepoint 12 hours
[7] = 18 h, replicate number 1, timepoint 18 hours
[8] = 24 h, replicate number 1, timepoint 24 hours
[9] = 6 h, replicate number 2, timepoint 6 hours
[10] = 0 h, replicate number 1, timepoint 0 hours
Further: unitless GR value; below 1 slowed growth and below 0 cell loss.

Row | Structure (SMILES) | Growth Rate (HEK-293T; [1]) | Growth Rate (HEK-293T; [2]) | Growth Rate (HEK-293T; [3]) | Growth Rate (Fibroblast; [4]) | Growth Rate (Fibroblast; [5]) | Growth Rate (Fibroblast; [6]) | Growth Rate (Fibroblast; [7]) | Growth Rate (Fibroblast; [8]) | Growth Rate (U2OS; [5]) | Growth Rate (U2OS; [9]) | Growth Rate (U2OS; [7]) | Growth Rate (U2OS; [2]) | Growth Rate (HEK-293T; [5]) | Growth Rate (HEK-293T; [6]) | Growth Rate (Fibroblast; [9]) | Growth Rate (Fibroblast; [2]) | Growth Rate (U2OS; [10]) | Growth Rate (U2OS; [6]) | Growth Rate (HEK-293T; [8]) | Growth Rate (U2OS; [4]) | further results
1 | C[C@]12N[C@H](Cc3ccccc31)c1ccccc12 [DIZOCILPINE] | 0.84 | 0.88 | 1 | 0.6 | 0.45 | 0.08 | 0.43 | 0.25 | 0.6 | 0.81 | 0.97 | 0.93 |  |  |  |  |  |  |  |  | Growth Rate (U2OS; [1]): 0.75; Growth Rate (U2OS; [3]): 0.98
2 | Cl.NCCc1ccc(O)c(O)c1 [DOPAMINE HYDROCHLORIDE] |  |  |  | 0.55 |  |  |  |  | 0.57 |  | 0.8 |  | 0.72 | 0.97 | 0.26 | 0.95 | 0.15 | 0.79 |  |  | Growth Rate (HEK-293T; [10]): 0.96; Growth Rate (Fibroblast; [10]): 0.12; Growth Rate (Fibroblast; [1]): 0.67; Growth Rate (U2OS; [8]): 0.95
3 | CC[C@H]1CN2CCc3cc(OC)c(OC)cc3[C@@H]2C[C@@H]1C[C@H]1NCCc2cc(OC)c(OC)cc21 [EMETINE] | -0.68 | -0.65 | -0.51 | 0.68 | -0.4 | -0.71 | -0.63 | -0.47 | 0.25 | 0.89 | 0.21 | 0.25 | -0.64 | -0.71 | -0.75 | -0.61 |  | 0.43 | -0.45 | -1 | Growth Rate (HEK-293T; [4]): 0.89; Growth Rate (HEK-293T; [9]): -0.77; Growth Rate (HEK-293T; [7]): -0.56; Growth Rate (Fibroblast; [1]): -0.61; Growth Rate (Fibroblast; [3]): -0.61; Growth Rate (U2OS; [1]): 0.49; Growth Rate (U2OS; [8]): 0; Growth Rate (U2OS; [3]): 0.17
4 | CNC[C@H](O)c1ccc(O)c(O)c1 [EPINEPHRINE] |  |  |  | -0.14 |  |  |  |  | 0.63 | 0.96 | 0.85 | 0.9 | 0.83 | 0.73 |  |  | 0.36 | 0.43 |  |  | Growth Rate (HEK-293T; [10]): 0.03; Growth Rate (HEK-293T; [7]): 0.84; Growth Rate (Fibroblast; [10]): 0.11; Growth Rate (U2OS; [1]): 0.71; Growth Rate (U2OS; [8]): 0.86; Growth Rate (U2OS; [3]): 0.94
5 | NC(N)=Nc1nc(CSCCC(N)=NS(N)(=O)=O)cs1 [FAMOTIDINE] |  | 0.89 |  | 0.42 |  | 0.41 |  |  | 0.18 |  |  |  | 0.72 | 0.65 | 0.22 | 0.4 |  |  | 0.96 | -1 | Growth Rate (HEK-293T; [9]): 0.45; Growth Rate (Fibroblast; [10]): 0.55; Growth Rate (Fibroblast; [1]): 0.17; Growth Rate (Fibroblast; [3]): 0.89
6 | Cc1c(CC(=O)O)c2cccnc2n1Cc1ccc(S(C)(=O)=O)cc1C(F)(F)F [FEVIPIPRANT] |  |  |  | 0.97 |  |  |  |  |  | 0.82 |  | 0.93 |  |  |  |  | -0.75 |  |  | -1 | Growth Rate (HEK-293T; [4]): 0.79; Growth Rate (Fibroblast; [10]): 0.42; Growth Rate (U2OS; [3]): 0.88
7 | CCCCCCCCc1ccc(CCC(N)(CO)CO)cc1 [FINGOLIMOD] | -0.63 | -0.5 | -0.4 |  | -0.91 | -0.88 | -0.82 | -0.7 | -0.97 | -0.45 | -0.23 |  | -0.74 | -0.52 | -0.95 | -0.59 |  | -0.74 | -0.33 |  | Growth Rate (HEK-293T; [9]): -0.91; Growth Rate (HEK-293T; [7]): -0.41; Growth Rate (Fibroblast; [1]): -0.71; Growth Rate (Fibroblast; [3]): -0.42; Growth Rate (U2OS; [1]): -0.31; Growth Rate (U2OS; [8]): 0.13; Growth Rate (U2OS; [3]): -0.13
8 | CN(C(=O)c1ccccc1)c1cc(N(C)c2ccc3c(c2)CCc2ccc(C(=O)NCCN4CCOCC4)cc2C3=O)ccc1F [FM-743] | -0.27 | -0.15 | -0.11 | 0.69 | -0.57 | -0.68 | -0.66 | -0.58 |  | 0.79 | 0.81 | 0.66 | -0.43 | -0.34 | -0.35 | -0.08 | 0.89 |  | -0.25 | 0.49 | Growth Rate (HEK-293T; [9]): 0; Growth Rate (HEK-293T; [7]): -0.33; Growth Rate (Fibroblast; [10]): 0.51; Growth Rate (Fibroblast; [1]): -0.23; Growth Rate (Fibroblast; [3]): -0.28; Growth Rate (U2OS; [1]): 0.72; Growth Rate (U2OS; [8]): 0.74; Growth Rate (U2OS; [3]): 0.53
9 | COc1cc2c(Oc3ccc(NC(=O)C4(C(=O)Nc5ccc(F)cc5)CC4)cc3F)ccnc2cc1OCCCN1CCOCC1 [FORETINIB] | -0.89 | -0.82 | -0.7 |  | -0.99 | -0.98 | -0.93 | -0.88 | 0.16 | -0.08 | -0.03 | 0.01 | -0.97 | -0.79 | -1 | -0.9 |  | -0.1 | -0.54 |  | Growth Rate (HEK-293T; [9]): -0.98; Growth Rate (HEK-293T; [7]): -0.65; Growth Rate (Fibroblast; [1]): -0.95; Growth Rate (Fibroblast; [3]): -0.91; Growth Rate (U2OS; [1]): -0.03; Growth Rate (U2OS; [8]): 0
10 | CN[C@@H]1CCc2[nH]c3ccc(C(N)=O)cc3c2C1.O.O=C(O)CCC(=O)O [FROVATRIPTAN SUCCINATE] |  | 0.94 | 0.82 |  | 0.36 |  | 0.81 | 0.66 | 0.73 |  | 0.74 |  |  |  |  |  | -0.34 | 0.48 | 0.98 | 0.89 | Growth Rate (HEK-293T; [10]): -0.07; Growth Rate (HEK-293T; [4]): 0.02; Growth Rate (HEK-293T; [9]): 0.9; Growth Rate (U2OS; [8]): 0.63
11 | CCCCCCCCc1ccc(CC[C@](N)(CO)COP(=O)(O)O)cc1 [FTY720-P] | 0.46 | 0.48 | 0.37 |  | 0.71 | 0.21 | 0.14 | 0.09 | 0.87 | 0.43 |  | 1 | -0.47 | -0.14 |  | 0.85 | 0.2 | 0.79 | 0.01 | -0.7 | Growth Rate (HEK-293T; [4]): 0.4; Growth Rate (HEK-293T; [9]): 0.66; Growth Rate (HEK-293T; [7]): 0.01; Growth Rate (Fibroblast; [3]): 0.65
12 | CN[C@@H](C)C(=O)N[C@H](C(=O)N1CCC[C@H]1C(=O)Nc1snnc1-c1ccccc1)C1CCCCC1 [GDC-0152] | 0.71 | 0.66 | 0.52 | 0.59 | -0.81 | -0.63 | -0.58 | -0.44 | 0.5 |  | 0.87 |  | 0.43 | 0.37 | -0.33 | -0.22 | -0.64 | 0.49 | 0.4 | 0.74 | Growth Rate (HEK-293T; [10]): 0.68; Growth Rate (HEK-293T; [4]): 0.53; Growth Rate (HEK-293T; [7]): 0.36; Growth Rate (Fibroblast; [10]): 0.95; Growth Rate (Fibroblast; [1]): -0.17; Growth Rate (Fibroblast; [3]): -0.21
13 | CSc1nc(NC2CCCC2)c([N+](=O)[O-])c(NC2CCCC2)n1 [GS-39783] | 0.85 | 0.92 |  | 0.9 | -0.14 | -0.14 | 0.18 | 0.19 |  | 0.83 |  | 0.75 |  | 0.97 | 0.69 |  | 0.05 |  |  | -1 | Growth Rate (HEK-293T; [10]): 0.5; Growth Rate (HEK-293T; [4]): 0.78; Growth Rate (U2OS; [1]): 0.75; Growth Rate (U2OS; [3]): 0.92

Source: ChEMBL document CHEMBL5058564, “EUbOPEN Chemogenomics Library 2 (Incucyte)” (2022)
